Test results: the supplement of paper PMC10307832

Assays:
Assay in all cases: relative viability (nuclei count vs DMSO), 5 days (fraction); higher = more cells survive
[1] = compound: C1CC2=C(C1)C=C(C=C2)OC3=NC(=C4C(=N3)N(C=N4)CC5=CC=C(C=C5)C6=CC=CC=C6)N[C@@H](CC7=CC=CC=C7)CO [QS11] + NC(=O)Nc1cc(-c2cccc(F)c2)sc1C(=O)N[C@H]1CCCNC1 [AZD7762] (partner 0.2 µM)
Summary of the method: (§1)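 The day after seeding in 1536-well plates, lung cancer cell lines were treated by pin tool with a single drug, or with a fixed anchor-drug dose together with five library-drug doses (not always all listed) in √10 steps. After 5 days, a combined fix-and-stain solution (final 0.05% Triton X-100, 1% formaldehyde, 1 ug/ml Hoechst) was added. Nuclei counted on 4× images gave relative viability as treated counts over vehicle counts, reported as the median of duplicate plates.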

[2] = compound: C1CC2=C(C1)C=C(C=C2)OC3=NC(=C4C(=N3)N(C=N4)CC5=CC=C(C=C5)C6=CC=CC=C6)N[C@@H](CC7=CC=CC=C7)CO [QS11] + O=C(CCCCCCC(=O)Nc1ccccc1)NO [Vorinostat] (partner 1 µM)
Summary of the method: as §1

[3] = compound: CC1=C(C=C(C=C1)NC(=O)C2=CC(=CC=C2)C(C)(C)C#N)NC3=CC4=C(C=C3)N=CN(C4=O)C [AZ628] + CC(C)C[C@H](NC(=O)[C@H](Cc1ccccc1)NC(=O)c1cnccn1)B(O)O [Bortezomib] (partner 0.002 µM)
Summary of the method: as §1

[4] = compound: CC1=C(C=C(C=C1)NC(=O)C2=CC(=CC=C2)C(C)(C)C#N)NC3=CC4=C(C=C3)N=CN(C4=O)C [AZ628] + Cc1nc(NC(=O)N2CCC[C@H]2C(N)=O)sc1-c1ccnc(C(C)(C)C(F)(F)F)c1 [Alpelisib] (partner 2 µM)
Summary of the method: as §1

Cell Line | relative viability ([1]; first compound 0.08 µM) | relative viability ([1]; first compound 0.253 µM) | relative viability ([1]; first compound 0.8 µM) | relative viability ([1]; first compound 2.53 µM) | relative viability ([1]; first compound 8 µM) | relative viability ([2]; first compound 0.08 µM) | relative viability ([2]; first compound 0.253 µM) | relative viability ([2]; first compound 0.8 µM) | relative viability ([2]; first compound 2.53 µM) | relative viability ([2]; first compound 8 µM) | relative viability ([3]; first compound 0.08 µM) | relative viability ([3]; first compound 0.253 µM) | relative viability ([3]; first compound 0.8 µM) | relative viability ([3]; first compound 2.53 µM) | relative viability ([3]; first compound 8 µM) | relative viability ([4]; first compound 0.08 µM) | relative viability ([4]; first compound 0.253 µM) | relative viability ([4]; first compound 0.8 µM) | relative viability ([4]; first compound 2.53 µM) | relative viability ([4]; first compound 8 µM)
201T | 0.669 | 0.748 | 0.591 | 0.619 | 0.617 | 0.937 | 0.995 | 0.797 | 0.866 | 0.668 | 1.15 | 1.13 | 1.13 | 1.16 | 1.21 | 1.08 | 1.03 | 1.13 | 1.09 | 1.12
A549 |  |  |  |  |  |  |  |  |  |  |  |  |  |  |  | 0.688 | 0.677 | 0.5 | 0.565 | 0.258
A-427 | 0.673 | 0.744 |  | 0.856 | 1.05 | 0.902 | 0.844 |  | 0.877 | 0.844 | 0.884 | 0.993 | 1.1 | 0.94 | 0.452 | 1.02 | 1.06 | 0.624 | 0.635 | 0.222
ABC-1 | 0.74 | 0.776 | 0.732 | 0.774 | 0.843 | 0.886 | 0.834 | 1.02 | 0.931 | 1.11 | 0.307 | 0.314 | 0.364 | 0.344 | 0.315 | 1.16 | 1.05 | 1.17 | 1.1 | 0.906
BEN | 0.577 | 0.66 | 0.929 | 0.773 | 0.79 | 0.568 | 0.528 | 0.528 | 0.688 | 0.647 | 0.882 | 0.653 | 0.666 | 0.813 | 0.616 | 1.22 | 0.87 | 0.791 | 0.963 | 0.835
CAL-12T | 0.736 | 0.572 | 0.546 | 0.596 | 0.551 | 0.867 | 0.915 | 0.713 | 0.983 | 0.704 | 0.948 |  | 0.747 | 0.835 | 0.779 | 1.29 |  | 1.2 | 1.34 | 0.503
COR-L23 |  |  |  |  |  | 0.397 | 0.334 | 0.469 | 0.301 | 0.282 | 1.04 | 1.04 | 0.97 | 1.14 | 0.645 | 0.864 | 0.732 | 0.762 | 0.808 | 0.334
COR-L 105 |  |  |  |  |  | 0.838 | 1.03 | 0.665 | 0.794 | 0.716 | 1.01 | 0.978 | 0.885 | 0.867 | 0.544 | 0.998 | 1.27 | 0.921 | 1.03 | 0.632
Calu-6 |  |  |  |  |  |  |  |  |  |  | 1.03 | 0.943 | 0.61 | 0.792 | 0.244 | 0.937 | 0.835 | 0.416 | 0.541 | 0.171
ChaGo-K-1 |  | 0.862 | 1 | 0.941 | 1 |  | 0.799 | 0.935 | 0.767 | 0.745 | 0.987 |  | 0.85 | 1.11 | 1.15 |  |  |  |  | 
EBC-1 |  |  |  |  |  |  |  |  |  |  | 0.636 | 0.605 | 0.642 | 0.685 | 0.472 | 0.865 | 0.859 | 0.949 | 0.811 | 0.298
EKVX | 0.693 | 0.743 | 0.627 | 0.649 | 0.755 | 0.642 | 0.625 | 0.592 | 0.567 | 0.545 | 1.17 | 1.11 | 1.21 | 1.09 | 0.603 | 0.909 | 0.903 | 0.949 | 0.983 | 0.866
EMC-BAC-2 | 1.1 | 0.99 | 0.957 | 0.989 | 0.856 | 0.492 | 0.434 | 0.385 | 0.334 | 0.325 | 1.11 | 0.963 | 1 | 0.991 | 1.08 | 0.704 | 0.645 | 0.681 | 0.608 | 0.706
EPLC-272H |  | 0.202 | 0.246 | 0.278 | 0.247 | 0.371 | 0.55 | 0.442 | 0.479 | 0.276 | 0.87 | 0.803 | 0.797 | 0.525 | 0.877 | 0.951 | 0.85 | 0.892 | 0.908 | 0.641
H3255 | 0.931 | 0.946 | 0.634 | 1.01 | 0.902 | 0.763 | 0.947 |  | 0.758 | 0.861 | 0.837 | 0.621 | 0.811 | 0.81 | 0.66 | 0.724 | 0.653 | 0.75 | 0.747 | 0.496
HARA | 0.63 |  | 0.267 | 0.454 | 0.329 | 0.498 | 0.565 |  | 0.506 | 0.431 | 1.1 | 1.08 | 1.08 | 1.03 | 0.568 | 0.68 | 0.763 | 0.907 | 0.726 | 0.391
HCC-15 | 1.27 | 1.26 | 0.877 | 1.22 | 0.461 | 0.861 | 0.944 | 0.651 | 0.84 | 0.648 | 1.06 | 0.951 | 0.873 | 0.866 | 0.661 | 0.967 | 0.742 | 0.707 | 0.699 | 0.392
HCC-44 | 1.11 | 0.995 | 0.65 | 1.02 | 1.02 | 1.14 | 1.05 | 0.557 | 0.98 | 1.01 | 0.904 | 0.915 | 1.09 | 1.01 | 0.758 | 0.754 | 0.796 | 0.801 | 0.68 | 0.705
IA-LM |  |  |  |  |  | 0.926 | 1.13 | 0.674 | 0.806 | 0.88 | 0.931 | 0.689 | 0.54 | 0.551 | 0.165 | 0.805 | 0.731 | 0.552 | 0.586 | 0.207
